Assay results as given in patent publication US8877889B2, “Tumor cell-killing peptides” (Industry-Academic Cooperation Foundation, Chosun University, priority 2009, dated 2014).
Entries after “also recorded” stand apart in the source; their conditions may differ.

What was measured:
Type in all cases: cell-based
[1] = tested on: HeLa cells; experiment: Cell death after transfection of Noxa constructs, counting EGFP-positive dead cells; settings: for cell death after over-expression: within 11 hrs after transfection (FIG. 1D); for cell death-inducing activity of Noxa point mutants: 20 hours after transfection (FIG. 3B); for cell death-inducing activity of leucine substitution mutants 4Lmt, 5Lmt: HeLa cells transfected (FIG. 8A)
Experimental: (D) HeLa cells were transfected with deletion mutants of Noxa. At 11 hrs, 24 hrs, and 36 hrs after transfection, cell death was determined by counting EGFP-positive dead cells with morphological changes using the fluorescent microscope.
(B) HeLa cells were transfected with WT or with the indicated Noxa mutants. 20 hours after transfection cell death was determined by counting the EGFP-positive dead and survived cells under the fluorescent microscope.
(A) HeLa cells were transfected with either WT Noxa, 4Lmt (L42A, L43A, L45A, L49A), or 5Lmt (L29A, L42A, L43A, L45A, L49A) constructs. At the indicated times after transfection, cell death was determined by counting the EGFP-positive dead cells with morphological changes under the fluorescent microscope.
HeLa cells were transfected with EGFP-Noxa WT and 41-54 in combination with Bcl-2 expression plasmid or in the presence of zVAD-fmk (25 μM). 18 hours after transfection, cell death was determined by counting EGFP-positive dead cells with morphological changes using the fluorescent microscope. Data represent an average±SD of three experiments each with 200 total cells counted.
The percentage of cell death was determined by counting EGFP-positive dead cells with morphology using the fluorescent microscope. Minimally, 300 cells in three separate fields were counted for each measurement.

[2] = tested on: HeLa cells; experiment: Mitochondrial localization of Noxa mutants, confocal microscopy; settings: confocal microscopic image analysis
Text: (B) HeLa cells were co-transfected with the pDsRed2-Mito and either Noxa 4Lmt or Noxa 5Lmt. 18 hrs after transfection the mitochondrial morphology was observed under the laser confocal microscope.

[3] = tested on: CT26 mouse colon carcinoma cells; experiment: Tumor cell killing activity, bright field images; settings: 10 μM peptide (FIG. 9A)
Experimental: (A) CT26 cells were treated with 10 μM MTD, TU1:MTD, TU2:MTD, or TU3:MTD peptides, and bright field images for indicated peptides were obtained at indicated time points. Representative images of at least 3 individual experiments were presented.

[4] = tested on: NCI-H460 cells; experiment: Peptide-induced cell death in NCI-H460 cells; settings: 5 μM, 2 or 5 hours (FIG. 3C)
Experimental: (C) NCI-H460 cells were treated with indicated peptides for 2 hours or 5 hours. % cell death was determined as described above.

[5] = tested on: HeLa cells; experiment: Peptide-induced cell death, counting dead and survived cells under the light microscope; settings: peptides 10 μM, 20 μM, 30 μM, 10 minutes after treatment (FIG. 1B, 3A)
Experimental: (B) HeLa cells were treated with DMSO or the indicated peptides in increasing doses (10 μM, 20 μM, and 30 μM). % of cell death was determined at 10 minutes after treatment by counting the dead cells and survived cells under the light microscope.
(E) HeLa cells were transfected with substitution mutants of MTD peptide.
HeLa cells were treated with DMSO or with the indicated peptides at increasing doses (10 μM, 20 μM, or 30 μM). % cell death was determined 10 minutes after treatment by counting the dead cells and survived cells (300 cells per sample) under the light microscope.
(D) HeLa cells were treated with indicated amounts of MTD peptide for 1 hour, 2 hours, or 5 hours. % cell death was calculated by counting the dead cells and survived cells (200 to 500 cells per sample) under the light microscope. Data represent the means±SD of three independent experiments.

[6] = tested on: HeLa cells; experiment: Measurement of intracellular calcium with Fluo-4-AM; settings: 3 μM peptide
Experimental: (A-C) HeLa cells were loaded with 3 μM Fluo-4-AM for 30 minutes and then treated with 3 μM of indicated peptides (A: MTD, B: MTDmt3, C: MTDmt5). Fluorescence images and bright-field images were obtained with the laser scanning confocal microscope at 5-second intervals for 5 minutes. Relative fluorescence intensities (F/F0) at two region-of-interests (ROI 1 and 2) were measured at 5-second intervals for 5 minutes.
(E-G) HeLa cells were pretreated in calcium free KRB media alone (E), in KRB media with 10 μM 2-APB and 20 μM Ryanodine (F), or in KRB media with freshly made 30 μM CsA (G) for 2 hours. HeLa cells were then loaded with 3 μM Fluo-4-AM for 30 minutes and treated with 3 μM of MTD peptide. Images were obtained with the laser scanning confocal microscope at 5-second intervals for 5 minutes. Relative fluorescence intensities (F/F0) at two region-of-interests (ROI 1 and 2) were measured at 5-second intervals for 5 minutes.
For Ca^2+ measurements in the cytosol, HeLa cells were cultured in an Lab-Tek™ Chamber glass slide and loaded with Fluo-4-AM (Fluo-4-acetoxymethyl ester) at a final concentration of 3 μM for 30 minutes, followed by washing with PBS (Phosphate buffered saline) at pH 7.4 and the addition of fresh Ca^2+-free Krebs-ringer modified buffer (KRB: 125 mM NaCl, 5 mM KCl, 1 mM Na3PO4, 1 mM MgSO4, 5.5 mM glucose, and 20 mM HEPES, pH 7.4, at 37° C.) containing the indicated peptides. Time-lapse images were obtained at 488 nm excitation with the Argon laser scanning confocal microscope (Leica TCS SP5 Microsystems, Mannheim, Germany) at 10-second intervals for 5 minutes to visualize Fluo-4-AM.

[7] = tested on: HeLa cells; experiment: Caspase activation, western blot of cell lysates; settings: 5 μM peptide
Experimental: (E) After treatment with the MTD peptide, MTDmt4, or MTDmt5 (5 μM) in HeLa cells, cell lysates were prepared at indicated times. Equal amounts of proteins were subjected to the SDS-PAGE and blotted onto PVDF membrane. After blocked with 5% nonfat milk in TBST (10 mM Tris-HCl, pH 7.5, 100 mM NaCl and 0.1% Tween-20), the membrane was probed with anti-caspase-3 (SantaCruz Biotechnology, Inc., Santa Cruz, Calif., USA), anti-caspase-8 (Cell signaling technology, Beverly, Mass., USA), anti-caspase-9 (SantaCruz Biotechnology, Inc., Santa Cruz, Calif.), anti-XIAP (Upstate Biotechnology, Dundee, United Kingdom), or anti-Bid (home-made) antibodies. Anti-actin antibody (Chemicon International, Inc., Temecula, Calif., USA) was used as equal loading control.

[8] = tested on: HeLa cells; experiment: Live cell images and annexin V / SYTOX Green staining of dying cells; settings: MTD peptide 10 μM or TRAIL 100 ng/ml (FIG. 2A, 7A, 7B)
Experimental: (A) HeLa cells were treated with MTD peptides (10 μM), or TRAIL (100 ng/ml). Images were taken at the indicated times (upper panel). Jurkat cells were treated with MTD peptide (10 μM) for 10 minutes, cells were processed for TEM. Images were obtained with 4,000× magnification (lower panel). N: nucleus, M: mitochondrion.
(D) HeLa cells were treated with the MTD (5 μM) peptide with or without the pretreatment of 10 μM BAPTA-AM for 2 hours. Live cell images were serially acquired at 10-second intervals for 10 minutes and shown at the indicated times.
(A) HeLa cells were stained with FITC-conjugated Annexin V antibody at 10 minutes after DMSO or MTD treatment. Images were obtained under the confocal microscope.
(B) HeLa cells were stained with SYTOX Green 10 minutes after DMSO or MTD treatment. Images were obtained using confocal microscope.

Molecule: 1-30: Noxa deletion mutant which did not contain any domains (MPGKKARKNAQPSPARAPAELEVECATQLR; UniProt Q13794 1-30, looked up, fragment)
- cell death after over-expression ([1]; HeLa cells): no effect on cell death

Molecule: 3Lmt: Noxa triple substitution L45A, L49A and L29A (MPGKKARKNAQPSPARAPAELEVECATQARRFGDKLNFRQKLLNAISKAFCSGT; UniProt Q13794 1-54, looked up, variant L29A L45A L49A)
- cell death-inducing activity of Noxa point mutants ([1]; HeLa cells): remarkably reduced the cell death-inducing activities

Molecule: 4Lmt: Noxa mutant with L42A, L43A, L45A and L49A (MPGKKARKNAQPSPARAPAELEVECATQLRRFGDKLNFRQKAANAISKAFCSGT; UniProt Q13794 1-54, looked up, variant L42A L43A L45A L49A)
- cell death-inducing activity of leucine substitution mutants 4Lmt, 5Lmt [1]: almost completely lost all of the cell death-inducing activity
- mitochondrial localization [2]: loss of Noxa mitochondrial localization

Molecule: 5Lmt: Noxa mutant with L29A, L42A, L43A, L45A and L49A (MPGKKARKNAQPSPARAPAELEVECATQARRFGDKLNFRQKAANAISKAFCSGT; UniProt Q13794 1-54, looked up, variant L29A L42A L43A L45A L49A)
- cell death-inducing activity of leucine substitution mutants 4Lmt, 5Lmt [1]: almost completely lost all of the cell death-inducing activity
- mitochondrial localization [2]: loss of Noxa mitochondrial localization

Molecule: 21-40: Noxa deletion mutant containing only the BH3 domain (LEVECATQLRRFGDKLNFRQ; UniProt Q13794 21-40, looked up, fragment)
- cell death-inducing activity after over-expression, with increasing time ([1]; HeLa cells, 24 hrs and 36 hrs after transfection (FIG. 1D)): strong cell death-inducing activity
- membrane morphology of transfected cells ([1]; HeLa cells, data not shown): membrane blebbings
- cell death after over-expression ([1]; HeLa cells): induced little cell death within 11 hrs

Molecule: CNGRCGGKLLNLISKLF [TU1:MTD]
- tumor cell killing activity [3]: no or little killing activity

Molecule: L29A: Noxa single substitution in the BH3 domain (MPGKKARKNAQPSPARAPAELEVECATQARRFGDKLNFRQKLLNLISKLFCSGT; UniProt Q13794 1-54, looked up, variant L29A)
- cell death-inducing activity of Noxa point mutants ([1]; HeLa cells): remarkably reduced the cell death-inducing activities

Molecule: L42A (MPGKKARKNAQPSPARAPAELEVECATQLRRFGDKLNFRQKALNLISKLFCSGT; UniProt Q13794 1-54, looked up, variant L42A)
- mitochondrial localization [2]: maintained the typical mitochondrial localization of Noxa

Molecule: L43A (MPGKKARKNAQPSPARAPAELEVECATQLRRFGDKLNFRQKLANLISKLFCSGT; UniProt Q13794 1-54, looked up, variant L43A)
- mitochondrial localization [2]: maintained the typical mitochondrial localization of Noxa

Molecule: L45A (MPGKKARKNAQPSPARAPAELEVECATQLRRFGDKLNFRQKLLNAISKLFCSGT; UniProt Q13794 1-54, looked up, variant L45A)
- cell death-inducing activity of Noxa point mutants ([1]; HeLa cells): remarkably reduced the cell death-inducing activities
- mitochondrial localization [2]: maintained the typical mitochondrial localization of Noxa

Molecule: L49A (MPGKKARKNAQPSPARAPAELEVECATQLRRFGDKLNFRQKLLNLISKAFCSGT; UniProt Q13794 1-54, looked up, variant L49A)
- cell death-inducing activity of Noxa point mutants ([1]; HeLa cells): remarkably reduced the cell death-inducing activities
- mitochondrial localization [2]: maintained the typical mitochondrial localization of Noxa

Molecule: RRRRRRRRGRQKLLNAASKLF (PTD-MTDmt3 fusion peptide derived from Homo sapiens)
- susceptibility of cells to peptide [4]: not
- cell death-inducing activity (% of cell death) [5]: completely lost their cell death-inducing activities; also recorded: no cell death
- cytosolic calcium level change [6]: did not induce changes in the cytosolic calcium level

Molecule: RRRRRRRRGRQKLLNLIAALF (PTD-MTDmt4 fusion peptide derived from Homo sapiens)
- cell death-inducing activity (% of cell death) [5]: maintaining the killing activity
- caspase activation [7]: not activated

B1: TRAIL (protein, UniProt P50591 1-281, looked up)
Tumor necrosis factor ligand …: MAMMEVQGGPSLGQTCVLIVIFTVLLQSLCVAVTYVYFTNELKQMQDKYSKSGIACFLKEDDSYWDPNDEESMNSPCWQVKWQLRQLVRKMILRTSEETISTVQEKQQNISPLVRERGPQRVAAHITGTRGRSNTLSSPNSKNEKALGRKINSWESSRSGHSFLSNLHLRNGELVIHEKGFYYIYSQTYFRFQEEIKENTKNDKQMVQYIYKYTSYPDPILLMKSARNSCWSKDAEYGLYSIYQGGIFELKENDRIFVSVTNEHLIDMDHEASFFGAFLVG
notes: apoptosis inducer used at 100 ng/ml for comparison
- morphology of dying cells [8]: membrane shrinkage of apoptotic cells
